The source made the active and inactive calls. The rule behind the calls is not given here.
Experiments:
[1] = Partition coefficient (logD); format: physicochemical; conditions: octanol/water
[2] = target: Gamma-aminobutyric acid receptor subunit rho-1 (Homo sapiens) (UniProt P24046); assay: Inhibition of inward current in oocytes expressing human GABA-C receptor rho1 subunit (No inhibition); format: cell-based; conditions: Oocyte
[3] = target: GABA B receptor (Rattus norvegicus, UniProt O88871+Q9Z0U4); assay: Displacement of [3H]GABA from Gamma-aminobutyric acid type B receptor in rat brain membranes; format: cell membranes
[4] = Dissociation constant was determined; format: physicochemical
[5] = target: Gamma-aminobutyric acid receptor subunit rho-1 (Homo sapiens) (UniProt P24046); assay: Inhibition of inward current in oocytes expressing human GABA-C receptor rho1 subunit; format: cell-based; conditions: Oocyte

Chain of Gamma-aminobutyric acid receptor subunit rho-1 (Homo sapiens) (P24046 whole entry): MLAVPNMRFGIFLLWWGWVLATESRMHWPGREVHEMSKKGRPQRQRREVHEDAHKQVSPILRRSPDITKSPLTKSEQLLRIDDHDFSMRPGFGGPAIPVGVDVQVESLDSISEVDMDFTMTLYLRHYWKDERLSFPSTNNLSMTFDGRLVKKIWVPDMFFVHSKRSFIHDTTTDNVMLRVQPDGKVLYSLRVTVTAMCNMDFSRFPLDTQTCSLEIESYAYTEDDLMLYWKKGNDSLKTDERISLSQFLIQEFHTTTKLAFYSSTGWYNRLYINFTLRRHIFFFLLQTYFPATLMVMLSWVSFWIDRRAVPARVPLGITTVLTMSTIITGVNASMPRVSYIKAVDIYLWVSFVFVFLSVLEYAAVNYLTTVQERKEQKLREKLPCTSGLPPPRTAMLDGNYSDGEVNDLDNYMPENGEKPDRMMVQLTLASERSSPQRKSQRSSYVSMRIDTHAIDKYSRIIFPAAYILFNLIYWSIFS
Chain of GABA B receptor (Q9Z0U4 whole entry): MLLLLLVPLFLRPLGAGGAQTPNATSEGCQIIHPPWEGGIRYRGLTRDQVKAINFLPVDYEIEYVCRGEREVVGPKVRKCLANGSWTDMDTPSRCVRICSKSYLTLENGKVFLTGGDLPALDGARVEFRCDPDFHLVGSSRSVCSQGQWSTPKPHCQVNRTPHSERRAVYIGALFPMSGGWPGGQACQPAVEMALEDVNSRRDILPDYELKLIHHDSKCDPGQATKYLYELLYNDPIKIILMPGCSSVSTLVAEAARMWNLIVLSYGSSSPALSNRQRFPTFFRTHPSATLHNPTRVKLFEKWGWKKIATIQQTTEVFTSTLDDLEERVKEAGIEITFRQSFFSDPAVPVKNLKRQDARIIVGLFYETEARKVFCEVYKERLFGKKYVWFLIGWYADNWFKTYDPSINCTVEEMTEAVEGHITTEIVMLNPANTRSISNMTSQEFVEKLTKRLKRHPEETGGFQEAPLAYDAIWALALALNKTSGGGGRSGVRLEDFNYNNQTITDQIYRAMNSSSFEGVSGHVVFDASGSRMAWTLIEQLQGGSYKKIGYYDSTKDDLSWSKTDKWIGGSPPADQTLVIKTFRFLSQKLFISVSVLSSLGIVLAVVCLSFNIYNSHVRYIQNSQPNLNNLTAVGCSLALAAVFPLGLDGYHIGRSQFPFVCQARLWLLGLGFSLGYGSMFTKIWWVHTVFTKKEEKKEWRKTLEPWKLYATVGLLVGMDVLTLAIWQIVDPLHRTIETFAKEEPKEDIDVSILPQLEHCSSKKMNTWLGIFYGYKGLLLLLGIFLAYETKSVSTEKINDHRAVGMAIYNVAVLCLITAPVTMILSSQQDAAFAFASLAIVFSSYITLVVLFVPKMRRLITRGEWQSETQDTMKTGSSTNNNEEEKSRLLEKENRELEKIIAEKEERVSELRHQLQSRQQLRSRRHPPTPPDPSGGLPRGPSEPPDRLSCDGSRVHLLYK
Chain of GABA B receptor (O88871 whole entry): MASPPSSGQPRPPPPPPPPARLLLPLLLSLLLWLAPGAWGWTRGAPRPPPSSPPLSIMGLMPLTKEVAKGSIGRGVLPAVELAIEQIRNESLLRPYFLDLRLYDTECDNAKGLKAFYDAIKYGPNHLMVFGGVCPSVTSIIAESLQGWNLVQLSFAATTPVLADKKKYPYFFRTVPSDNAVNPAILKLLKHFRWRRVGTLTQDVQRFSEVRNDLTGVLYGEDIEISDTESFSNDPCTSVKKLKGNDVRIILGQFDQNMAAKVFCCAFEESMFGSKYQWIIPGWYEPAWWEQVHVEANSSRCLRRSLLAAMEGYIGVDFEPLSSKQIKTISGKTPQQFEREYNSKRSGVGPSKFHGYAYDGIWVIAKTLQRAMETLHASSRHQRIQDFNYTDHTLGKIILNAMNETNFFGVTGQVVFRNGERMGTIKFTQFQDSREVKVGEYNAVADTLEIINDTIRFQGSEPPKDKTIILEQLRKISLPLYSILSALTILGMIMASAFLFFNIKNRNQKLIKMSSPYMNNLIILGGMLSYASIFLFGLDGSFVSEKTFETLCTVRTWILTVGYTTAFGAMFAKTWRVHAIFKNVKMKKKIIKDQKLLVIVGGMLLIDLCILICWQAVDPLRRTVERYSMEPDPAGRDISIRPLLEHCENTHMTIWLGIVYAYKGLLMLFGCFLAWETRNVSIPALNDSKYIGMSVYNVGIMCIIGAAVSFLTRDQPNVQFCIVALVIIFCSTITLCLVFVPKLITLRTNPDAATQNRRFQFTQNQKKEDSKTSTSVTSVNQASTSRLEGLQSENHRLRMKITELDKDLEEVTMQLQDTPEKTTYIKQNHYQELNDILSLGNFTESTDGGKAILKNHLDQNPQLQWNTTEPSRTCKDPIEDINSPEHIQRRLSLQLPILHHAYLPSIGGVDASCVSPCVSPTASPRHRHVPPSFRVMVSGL

logD [1]	Kb [2]	IC50 [3]	pKa [4]	Log KB [5]	Compound
-1.7	inactive	> 1000 µM	6.52		NCc1ccc(F)c(O)c1F
-1.7	75.5 µM	> 1000 µM	6.98	-4.12	NCc1cc(F)c(O)c(F)c1
-3.1					NCCCC(=O)O [GAMMA-AMINOBUTYRIC ACID]

Compound	logD [1]	Kb [2]	IC50 [3]	pKa [4]	Log KB [5]
CP(=O)(O)C1=CCNCC1	-3.7				
